Experimental data as given in patent US20230158068A1 (priority 2020, published 2023).

How the values were obtained:
U937 cells [1] = test: CD marker expression in PMA treated U937 cells (flow cytometry); type: cell-based, human
Experimental: Human monocytic U937 cells derived from pleural effusion were seeded at 5×10^5 cells/mL in a 24 well plate or on the underside of a culture insert with 3.25×10^5 cells per well with 100 nM phorbol 12-myristate 13-acetate (PMA) (dissolved in DMSO; <1% v/v) in complete RPMI medium (10% v/v FBS, 1% v/v penicillin-streptomycin, 2 mM L-glutamine). Cells were incubated for 72 h at 37° C., 5% v/v CO2 in a humidified incubator to differentiate the cells to mature macrophages. Following PMA incubation, media was replaced with fresh CCM and incubated for a further 24 h rest period. After the 24 h rest phase, U937/MØ were ready for co-culture assembly. U937/MØ cells were prepared in line with when epithelial cells were ready, i.e. day 5 for A549 and day 10 for hAELVi cells.
FIG. 3 illustrates the expression profiles of selected CD markers in PMA treated U937 cells and primary alveolar macrophages (pAM). CD markers are: (A) CD 11a, (B) CD 11b, (C) CD 14, (D) CD 36 and (E) CD 206. U937 cells treated with (0 nM, 5 nM, and 100 nM) PMA for 24 h to-96 h followed by a 24 h rest period in fresh culture medium. Expression of CD markers was measured by flow cytometry and are presented as median fluorescent intensity (MFI±SEM). […]

U937 cells [2] = test: Morphology of U937 cells with exposure to PMA; type: cell-based, human; settings: 72 h, 100 nM PMA differentiation protocol
Experimental: FIG. 5 illustrates the morphology of U937 cells with exposure to PMA. U937 cells were cultured on chamber slides with medium supplemented with either 0 nM, 5 nM or 100 nM PMA and incubated for 24 h, 48 h, 72 h and 96 h followed by a 24 h recovery phase in fresh medium. Non-adherent PMA naive cells required centrifuge preparation. Primary human alveolar macrophages were harvested for morphological comparison. The cells were photographed at ×400 magnification with an inverted light microscope. (50 um scale bar).

U937 cells [3] = test: Long-term proliferation of PMA treated U937 cells (Guava ViaCount assay); type: cell-based, human; settings: 100 nM PMA
Experimental: FIG. 6 illustrates the long-term proliferation of PMA treated U937 cells. […] Cell proliferation was assessed using Guava ViaCount assay via flow cytometry for 10,000 events. Results shown are representative for two repeated experiments performed in triplicate. Viable cells/mL are shown as mean±SD.

U937 cells [4] = test: Phagocytic activity of PMA treated U937 cells; type: cell-based, human; settings: 72 h, 100 nM PMA differentiation protocol
Source text: FIG. 4 illustrates the phagocytic activity of PMA treated U937 cells and primary alveolar macrophages (pAM). Percentage of phagocytic cells (mean±SEM) from PMA treated U937 cells. (n=9) for each time point for U937 cells and n=3 for primary cells.

[5] = test system: differentiated U937 cells; test: Phospholipidosis accumulation in differentiated U937 cells in co-culture set ups (HCS LipidTOX Green); type: cell-based, human; settings: 10 μM amiodarone; differentiated U937 cells in three co-culture set ups
Experimental: The phospholipid accumulation was assessed using HCS LipidTOX™ Green phospholipidosis detection reagent. Phospholipidosis accumulation was detected in differentiated U937 cells cultured in LLI in three different co-culture set ups: A) Type I/II cells cultured in mixed 10:1 ratio in apical compartment, differentiated U937 (lilac) cells cultured at the basolateral compartment B) Type I/II cells cultured as a layers in a 10:1 ratio in apical compartment, differentiated U937 cells cultured at the basolateral compartment (blue), C) Type I cells cultured in the apical compartment and differentiated U937 cells were seeded on the underside of Transwell® inserts (green). […] A total of 5000 events were acquired on the flow cytometer.

[6] = test system: differentiated U937 cells (MØ); test: Phagocytic activity of differentiated U937 cells in mono-culture and co-cultures in the presence of LPS; type: cell-based, human; settings: 10 ng/mL LPS, 24 h; both co-culture systems
Experimental: FIG. 23 illustrates a comparison of macrophages in mono-culture and co-cultures phagocytosis of microspheres. Differentiated U937 cells (MØ), MØ cells cultured with hAELVi cells (T I model) or A549 cells (T II model) exposed to 10 ng/mL LPS (+LPS) for 24 h. Phagocytosis assays were performed after 2 h incubation with 1.0 μm FluoSpheres™ Carboxylate-Modified microspheres using fluorescent microscopy. Images at 40× magnification. Scale bar is 100 μm.
FIGS. 24A and 24B illustrate phagocytic activity of differentiated U937 cells (MØ) in mono-culture and co-cultures in the presence of LPS. MØ cells cultured with hAELVi cells (T I model) or A549 cells (T II model) exposed to 10 ng/mL LPS (+LPS) for 24 h. Phagocytosis assays were performed after 2 h incubation with 1.0 μm FluoSpheres™ Carboxylate-Modified microspheres using flow cytometry. Cells were gated for 1000 events (A) per sample. […] Percentage of cells above the gated (R3) threshold (B) of mono and co-cultures. A one way ANOVA was used to determine significance for each treatment group and Tukey's multiple comparison post hoc test employed when* p<0.05, *** : p<0.0001 where n=3 independent models.

[7] = test system: T I model (hAELVi + MØ), T II model (A549 + MØ); test: LDH release from co-cultures with LPS (cell health); type: cell-based, human; settings: 10 ng/mL LPS, 24 h; both co-culture models
Experimental: FIGS. 25A and 25B illustrate the comparison of mono-culture and co-culture construction on cell health. Percentage of maximum LDH released into supernatants from cell populations normalised to 0.1% v/v Triton-X 100 positive control. LDH released from co-cultures: (T I) hAELVi and (T II) A549 cells in co-culture with MØ cells were assessed (A). MØ cells cultured with hAELVi cells (T I model) or A549 cells (T II model) were exposed to 10 ng/mL LPS (+LPS) for 24 h (B). A one way ANOVA was used to determine significance for each treatment group and Tukey's multiple comparison post hoc test employed when* p<0.05, p<0.001 Data shown represent n=6 data points±SD of three independent cell model experiments.

co-culture models = test: IL-8 secretion of co-culture models after LPS (ELISA); type: cell-based, human; settings: 100 ng/ml LPS
Experimental: FIG. 36 illustrates extent of immune response using IL-8 secretion. […] IL-8 levels detected from supernatants of co-culture models cultured under LLI/ALI post exposure to 100 ng/ml LPS. The IL-8 levels were quantified using ELISA assay. […] N=4, * indicates (p<0.05).

[8] = test system: MØ, T I model, T II model; test: Human cytokine profile of mono-culture and co-culture models in LPS (array membranes); type: cell-based; settings: LPS 100 ng/mL, 24 h
Experimental: FIG. 18 illustrates human cytokine profile of lower airway for ALI cell models. Detection of spots on array membranes from supernatant collect from mono-culture and co-cultures of: differentiated U937 cells (MØ) with LPS (MØ+LPS), hAELVi TI cells (T I), A549 TII cells (T II), type I co-culture model: hAELVi and MØ (T I model) with LPS (T I model+LPS), type II co-culture model: A549 and MØ (T II model) with LPS (T II model+LPS). Models were untreated or stimulated with 100 ng/mL LPS for 24 h. Controls are shown as positive (green) and negative (red). Data represents four independent Transwell® inserts. […] The data analysed in more detail in below figures.
FIG. 21 illustrates human cytokine profile of lower airway; T I &T I I models in the presence of LPS. […] Data represents mean signal intensity (AU) of each protein spot from the blot detected using chemiluminescence imaging and quantified using imageJ software for four independent Transwell® inserts±sd. […]
FIG. 22 illustrates human cytokine profile of lower airway of mono-culture and co-culture models in LPS. […] Data analysed by two-way ANOVA with Bonferroni post hoc test of non-stimulated cells vs LPS stimulation. […]

[9] = test system: differentiated U937 cells (MØ), T I model, T II model; test: CD marker expression in LPS stimulated alveoli models (flow cytometry); type: cell-based, human; settings: 10 ng/mL LPS, 24 h
Experimental: FIG. 17 illustrates CD marker expressions in LPS stimulated and non-stimulated alveoli models. Differentiated U937 cells (MØ), MØ cells cultured with hAELVi cells (T I model) or A549 cells (T II model) exposed to 10 ng/mL LPS (+LPS) for 24 h. Direct immunofluorescent staining assays for CD 11 b (A &C) and CD 36 (B & D) surface markers were performed using flow cytometry. A total of 5000 gated events were collected for each sample. MFI (median fluorescent intensity) data shown as mean±sd (n=9) for 3 independent models for Dunnett's post hoc test after one-way ANOVA where *#:p<0.005, *** :p<0.0001 vs MØ and MØ+LPS respectively.

[10] = test system: hAELVi and A549 cells in co-culture with MØ cells; test: TEER of alveolar epithelial cells in co-culture with LPS; type: cell-based, human; settings: 10 ng/mL LPS, 24 h
Experimental: FIGS. 26A and 26B illustrate the impact of LPS on barrier properties of alveolar epithelial cells in co-culture. TEER measurements of (T I) hAELVi and (T II) A549 cells in co-culture with MØ cells. MØ cells cultured with hAELVi cells (T I model) or A549 cells (T II model) were exposed to 10 ng/mL LPS (+LPS) for 24 h. A one-way ANOVA was used to determine significance for each treatment group. Data shown represent n=3 of three independent cell model experiments (p>0.05).

## CCCCCCCCCCCCCC(=O)O[C@@H]1[C@@H](C)[C@@]2(O)[C@@H](C=C(CO)C[C@]3(O)C(=O)C(C)=C[C@@H]23)[C@@H]2C(C)(C)[C@]12OC(C)=O [PMA, phorbol-12-myristate-13-acetate]
U937 cells [1]; PMA treated U937 cells
  expression of CD36 and CD206 (M2 markers): low
U937 cells [1]; U937 cells, 100 nM PMA, 72 h, 24 h rest, compared with primary human alveolar macrophages
  expression of cell surface markers selected to identify an alveolar macrophage phenotype (CD 11a, CD 11b, CD 14): optimally expressed
U937 cells [2]
  cell morphology: most similar morphology to primary human alveolar macrophages
U937 cells [3]; 24 h exposure
  cell proliferation: reduced
U937 cells [3]; 96 h exposure
  cell proliferation: no
U937 cells [4]
  phagocytic functionality: same phagocytic functionality of primary human alveolar macrophages

## CCCCc1oc2ccccc2c1C(=O)c1cc(I)c(OCCN(CC)CC)c(I)c1 [amiodarone]
[5]
  phospholipidosis accumulation: detected

## lipopolysaccharide [LPS]
[6]
  ability to phagocytose (1.0 μm microspheres): retain their ability to phagocytose
[7]
  cell viability (LDH release): not adversely affected
co-culture models; all models
  IL-8 secretion: significantly increased
co-culture models; combination type I and II epithelial models
  IL-8 secretion: significantly elevated
[8]
  cytokine markers (signal intensity on array): elevated
[9]
  macrophage activation (CD11 b expression, absence of CD36 expression): likely to drive the macrophages to M1 type activation
[10]
  barrier properties of the alveolar type I epithelial cells (TEER): not compromised
